Measurements from EP0489933A1, “BILE ALCOHOL AND DRUG CONTAINING THE SAME AS ACTIVE INGREDIENT” (TSUMURA CO., LTD., priority 1990, dated 1992).
Where two headings read alike, the source gives them in different places.

How the values were obtained:
[1] = test system: male mice of ddY line; experiment: Blood oxygen and carbon dioxide partial pressure; format: in vivo; conditions: 20 mg/kg, i.p.; blood from abdominal aorta 60 minutes after administration
Method: In this experiment, 4-week-old male mice of ddY line (10 individuals per one group) were used after fasting treatment for 24 hours.
After 60 minutes of the administration of each compound of the present invention, each mouse was subjected to ventrotomy under anesthesia with Nembutal® (Dainabot Co., Ltd.; 50 mg/kg, i.p.) to collect blood from abdominal aorta, and the collected blood sample was immediately checked for its oxygen partial pressure (PO₂) and carbon dioxide partial pressure (PCO₂) using a blood-aerotonometer (Model 170, Ciba-Corning).

[2] = test system: male rats of SHR line; experiment: Blood pressure in SHR rats; format: in vivo; conditions: 10 mg/kg, p.o., 2 weeks
Method: In this experiment, 12-week-old male rats of SHR line (5 to 6 individuals per one group) were used after rearing them for 1 week with normal feed. Oral administration of each test drug has been carried out for 2 weeks and then blood pressure (mmHg) was measured using a small animal hemomanometer (UR-1000).

[3] = test system: male rats of SD line; experiment: High cholesterol feed: blood viscosity, serum total cholesterol, triglyceride, GOT; format: in vivo; conditions: 100 mg/kg/day, p.o., 4 days
Method: In this experiment, 5-week-old male rats of SD line (5 individuals per one group) were used after rearing them for 1 week using normal feed, and each compound of the present invention (100 mg/kg) was administered orally once a day for 4 days. Simultaneously with the commencement of the administration, the normal feed was replaced by a high cholesterol feed. After completion of the administration, they were subjected to fasting treatment for 24 hours. Thereafter, each rat was subjected to ventrotomy under anesthesia with Nembutal® (Dainabot Co., Ltd.; 50 mg/kg, i.p.) to collect blood from abdominal aorta, and the collected blood sample was checked for its blood viscosity using a viscometer (Biolyzer, Tokyo Keiki Co., Ltd.). At the same time, total cholesterol (Wako Pure Chemical Industries, Ltd.; Cholesterol E-test wako), triglyceride (Wako Pure Chemical Industries, Ltd.; Triglyceride G-test wako) and GOT (Wako Pure Chemical Industries, Ltd.; GOT-UV test-wako) in serum samples were measured.

[4] = test system: male mice of ddY line; experiment: Survival time under hypoxia (aeration with 96% nitrogen and 4% oxygen); format: in vivo; conditions: 50 mg/kg, i.p., 60 minutes before aeration with 96% nitrogen and 4% oxygen; time to respiratory arrest
Method: In this experiment, 5 to 6-week-old male mice of ddY line (10 individuals per one group) were used after fasting treatment for 24 hours.
Each compound obtained in the present invention was administered intraperitoneally. After 60 minutes of the administration, each mouse was transferred separately into a transparent vessel (capacity, 1,000 ml) equipped with an air exit, and the vessel was aerated with a mixed gas consisting of 96% nitrogen and 4% oxygen at an aeration rate of 5 ℓ/min.
All tested mice died within 180 seconds after the commencement of the gas mixture aeration. Terminal respiration was observed several times prior to the respiratory arrest. Survival time of the control group was roughly in the range of from 96 to 111 seconds.

[5] = test system: red blood cells; experiment: Inhibition of thermal hemolysis of red blood cells; format: cell-based, donryu rats; conditions: 53°C for 20 minutes; for inhibition at 10 µM / inhibition at 50 µM / inhibition at 100 µM / inhibition at 200 µM / inhibition at 500 µM: Rattus norvegicus, Erythrocyte, 20 min, read-out: Hemolysis Inhibition Ratio (%) against Control
Method: Blood was collected from donryu rats of 150 to 200 g in body weight and centrifuged at 1,500 rpm for 5 minutes to obtain red blood cells. The red blood cells thus collected were diluted with 0.15 M phosphate buffer (pH 7.4) to prepare a 5% red blood cell suspension. A 3.8 ml portion of the thus prepared suspension was mixed with 0.2 ml solution of each compound of the present invention which has been adjusted to each level of the concentrations as shown in the following table, and the resulting mixture was shaken thoroughly and incubated at 53°C for 20 minutes. Thereafter, the thus incubated mixture was cooled rapidly with tap water and centrifuged at 3,000 rpm for 15 minutes, and absorbance at 540 nm of the resulting supernatant fluid was measured using a spectrophotometer (Hitachi: Type 200-20). Inhibition rate (%) of red blood cell hemolysis at each concentration of the compound was calculated based on the absorbance, with the results shown in Table 8.

[6] = test system: male mice of ddY line; format: in vivo; conditions: 50 mg/kg, i.p., 60 minutes before KCN (3.0 mg/kg) tail intravenous injection; for Survival Time ±S.E.: time to respiratory arrest
[7] = test system: rats of diabetes mellitus; experiment: Blood sugar level in streptozotocin-induced diabetes mellitus; format: in vivo, male rats of Wistar line; conditions: 50 mg/kg, i.o.; administered for 1 week beginning 1 week after streptozotocin (40 mg/kg); serum
Method: In this experiment, 8-week-old male rats of Wistar line (5 individuals per one group) were used after rearing them for 1 week with normal feed. Streptozotocin (40 mg/kg) was administered by tail intravenous injection to obtain rats of diabetes mellitus. Beginning after 1 week of the streptozotocin administration, oral administration of each test drug has been carried out for 1 week, followed by 24 hours of fasting. Thereafter, blood sample was collected from lower abdominal vena cava under anesthesia with Nembutal® (1 ml/kg, i.p.). Serum samples were prepared from the thus collected blood samples and checked for their blood sugar levels, with the results shown in Table 9.

[8] = test system: erythrocytes; experiment: Erythrocyte deformability (filtration through 5 µm filter) after oral administration; format: in vivo, male rats of Wistar line; conditions: 30 mg/kg, p.o.; blood collected 90 minutes after administration; number of filtered erythrocytes
Method: In this experiment, 9-week-old male rats of Wistar line (5 to 6 individuals per one group) were used after rearing them for 1 week with normal feed. After 24 hours of fasting, each test drug was administered orally and, 90 minutes thereafter, blood sample was collected from lower abdominal vena cava of each rat under anesthesia with Nembutal® (1 ml/kg, i.p.). Blood samples obtained in this way were checked for their blood clotting time and erythrocyte deformability.
Measuring procedures are as follows.
Erythrocyte deformability ... The collected blood is extruded from a syringe with a constant flow of He in a holder equipped with a filter (5 µm). Weight of blood and the number of erythrocytes filtered during a fixed time are measured and the deformability is expressed based on the number of filtered erythrocytes. The results of these measurements are shown respectively in Tables 11 and 12.

SMILES	Carbon Dioxide Partial Pressure [1] [mmHg]	Oxygen Partial Pressure [1] [mmHg]	Blood Pressure ±S.E. Average [2] [mmHg]	Blood Pressure ±S.E. Maximum [2] [mmHg]	GOT ±S.E. [3] [IU/ℓ]	Total Cholesterol ±S.E. [3] [mg/dL]	Triglyceride ±S.E. [3] [mg/dL]	Survival Time ±S.E. [4] [s]	Lethality (%) [6] [%]	Survival Time ±S.E. [6] [s]	Blood Sugar Level ± S.E. [7] [mg/dL]	Erythrocyte Deformation: Erythrocyte counts ±S.E. [8] [× 10⁷]	inhibition at 10 µM ([5]; 0.01 mM) [%]	inhibition at 50 µM ([5]; 0.05 mM) [%]	inhibition at 100 µM ([5]; 0.1 mM) [%]	inhibition at 200 µM ([5]; 0.2 mM) [%]	inhibition at 500 µM ([5]; 0.5 mM) [%]	further results
C[C@H](CC[C@H](O)CCO)[C@H]1CC[C@H]2[C@@H]3[C@H](O)C[C@@H]4C[C@H](O)CC[C@]4(C)[C@H]3C[C@H](O)[C@]12C [Illustrative Example 3, 27-nor-(24S)-(+)-3α,7α,12α,24,26-pentahydroxy-5β-cholestane]	40.8	89.9	141 ± 3.2	199 ± 2.6	158 ± 12	428 ± 68	105 ± 40	109.2 ± 4.77	80	97.2 ± 8.51	165 ± 6.6	3.81 ± 0.23						Hemolysis Inhibition Ratio (%) against Control ([5]; 0.01 mM): 38%; Hemolysis Inhibition Ratio (%) against Control ([5]; 0.05 mM): 31%; Hemolysis Inhibition Ratio (%) against Control ([5]; 0.1 mM): 22%; Hemolysis Inhibition Ratio (%) against Control ([5]; 0.2 mM): 41%; Hemolysis Inhibition Ratio (%) against Control ([5]; 0.5 mM): 61%
C[C@H](CCCC(C)(O)CO)[C@H]1CC[C@H]2[C@@H]3[C@H](O)C[C@@H]4C[C@H](O)CC[C@]4(C)[C@H]3C[C@H](O)[C@]12C (stereo partly drawn) [Illustrative Example 4, 5β-cholestane-3α,7α,12α,25,26-pentol]	40.5	91.9	144 ± 4.4	181 ± 2.5	116 ± 31	450 ± 59	108 ± 38	118.0 ± 5.11	70	119.0 ± 7.12	133 ± 5.4	3.93 ± 0.38	27	25	41	42	49	
CC(C)C(O)CC[C@@H](C)[C@H]1CC[C@H]2[C@@H]3[C@H](O)C[C@@H]4C[C@H](O)CC[C@]4(C)[C@H]3C[C@H](O)[C@]12C (stereo partly drawn) [Illustrative Example 5, 3α,7α,12α,24-tetrahydroxy-5β-cholestane]	41.2	88.1	151 ± 4.6	185 ± 7.7	131 ± 21	453 ± 49	110 ± 29	110.5 ± 6.71	80	101.1 ± 7.8	170 ± 7.2	3.51 ± 0.65	25	21	33	51	58	
C[C@H](CCCO)[C@H]1CC[C@H]2[C@@H]3[C@H](O)C[C@@H]4C[C@H](O)CC[C@]4(C)[C@H]3C[C@H](O)[C@]12C [Illustrative Example 6, 3α,7α,12α,24-tetrahydroxy-5β-cholan]	40.1	89.6	148 ± 8.4	187 ± 6.3	136 ± 10	451 ± 50	107 ± 21	115.4 ± 2.24	80	105.3 ± 6.84	159 ± 5.7	3.71 ± 0.48	24	22	38	51	59	
